Measured values reported in ChEMBL document CHEMBL5033996, “Design, Synthesis, and Bioactivity Evaluation of Dual-Target Inhibitors of Tubulin and Src Kinase Guided by Crystal Structure” (J Med Chem, 2021).

Tests used:
Type in all cases: functional, cell-based
K562 = experiment: Antiproliferative activity against human K562 cells assessed as inhibition of cell proliferation measured after 72 hrs by MTT assay; settings: K562, 72 h
Ramos = experiment: Antiproliferative activity against human Ramos cells assessed as inhibition of cell proliferation measured after 72 hrs by MTT assay
SK-OV-3 = experiment: Antiproliferative activity against human SK-OV-3 cells assessed as inhibition of cell proliferation measured after 72 hrs by MTT assay; settings: SK-OV-3, 72 h

Row | Structure (SMILES) | IC50 (K562) [nM] | IC50 (Ramos) [nM] | IC50 (SK-OV-3) [nM]
1 | O=C(Cc1ccc(-c2ccc(OCCNC3CC3)cc2)cn1)NCc1ccccc1 | 29.3 | 98.1 | 5.2
2 | O=C(Cc1ccc(-c2ccc(OCCCN3CCOCC3)cc2)cn1)NCc1ccccc1 | 50.9 | 129 | 15.6
3 | O=C(Cc1ccc(-c2ccc(OCCN3C[C@@H]4C[C@H]3CO4)cc2)cn1)NCc1ccccc1 | 16.2 | 25.8 | 19.5
4 | CC1(C)C2CN(CCOc3ccc(-c4ccc(CC(=O)NCc5ccccc5)nc4)cc3)CC21 (centres undefined) | 41.5 | 64.4 | 165
5 | O=C(Cc1ccc(-c2ccc(OCCCCN3CCOCC3)cc2)cn1)NCc1ccccc1 | 29.6 | 43.5 | 10.4
6 | CC(C)(C)OC(=O)N1CCN(CCOc2ccc(-c3ccc(CC(=O)NCc4ccccc4)nc3)cc2)CC1 | > 100 | 15.9 | 53.3
7 | CCN1CCN(CCOc2ccc(-c3ccc(CC(=O)NCc4ccccc4)nc3)cc2)CC1 | 39.9 | 36.3 | 14.5
8 | COC1CCN(CCOc2ccc(-c3ccc(CC(=O)NCc4ccccc4)nc3)cc2)CC1 | 13 | 15.8 | 8.1
9 | O=C(Cc1ccc(-c2ccc(OCCN3CCC4(CC3)CC4)cc2)cn1)NCc1ccccc1 | 34.1 | > 100 | 97.5
10 | CC1CCCN(CCOc2ccc(-c3ccc(CC(=O)NCc4ccccc4)nc3)cc2)C1 (centres undefined) | > 100 | > 100 | 57.7
11 | O=C(Cc1ccc(-c2ccc(OCCCN3C[C@@H]4C[C@H]3CO4)cc2)cn1)NCc1ccccc1 | > 100 | > 100 | 80.2
12 | CC(=O)N1CCN(CCOc2ccc(-c3ccc(CC(=O)NCc4ccccc4)nc3)cc2)CC1 | 14.4 | 7.3 | 4
13 | O=C(Cc1ccc(-c2ccc(OCCN3CCC4(CC3)OCCO4)cc2)cn1)NCc1ccccc1 | 16.5 | 23.8 | 6.7
